Source: US20170079296A1, “Methods For Treating Plants Or Fruits” (The United States of America, as represented by the …, priority 2015, published 2017)

Key:
[1] = tested on: bananas; test: Color change of bananas after ethylene mediated ripening treatment (colorimeter); assay type: in vivo; conditions: banana surface color after ripening treatment (48 hours)
Description: (§1) The color change of the produce was measured using a Minolta colorimeter (Minolta Co. Ltd, Japan). The L values reported were means of 12 readings; three readings from each side of each of the bananas, and two readings per avocado. For bananas, ‘a’ was an indicator of green, and higher ‘a’ value meant less green; ‘b’ was an indicator of yellow, and higher ‘b’ value meant more yellow. For avocados, the degree of browning was expressed by the percent decrease in the L value calculated by subtracting the L value of treated and control samples measured at evaluation times from the time zero L value obtained from untreated samples measured immediately after cutting, divided by the time zero value and multiplied by 100.

[2] = tested on: avocados; test: Color change of avocados after ethylene mediated ripening treatment (colorimeter); assay type: in vivo, avocado
Description: as §1

[3] = tested on: bananas; test: Texture (tensile property, firmness) of bananas after ripening treatment; assay type: in vivo, banana
Description: (§2) Each measurement was repeated at least three times. […] Five replicates were measured for each measurement.
(§3) Tensile Property. […] At least five replicates were measured for each treatment.

[4] = tested on: avocados; conditions: after 48 hours of treatment
Description: as §2, §3

[5] = tested on: climacteric produce; test: Controlled ripening of climacteric produce; assay type: in vivo
Description: Avacados and grocery bananas (pretreated at warehouse or retail facility) were acquired directly from local supermarket, and ‘non-gassed’ bananas were directly purchased from local produce distribution center (Coastal Sunbelt, Jessup, Md.).

[6] = avocado surface color after ripening treatment (48 hours)

SMILES: C=C [ethylene]
- L [1]: 66.74 ± 0.77
- c [1]: 45.80 ± 4.64
- h [1]: 92.08 ± 0.83
- a ([1]; higher a = less green): −1.66 ± 0.57
- b ([1]; higher b = more yellow): 45.77 ± 4.60
- skin color of avocado ([2]; after treatment, in words): darkened slightly
- L [2, 6]: 30.17 ± 0.23
- a [2, 6]: −1.31 ± 3.01
- b [2, 6]: 13.54 ± 1.66
- c [2, 6]: 13.60 ± 3.44
- h [2, 6]: 95.53 ± 0.29
- Young's modulus (initial slope): change of elasticity of bananas [3]: less elastic and more viscous
- avocado flesh texture [4]: softened significantly
- ripening state of samples ([5]; after 48 hours of treatment): fully ripened
- total ripening time required ([5]; versus no ethylene treatment): reduced by a half
